The source of these data is patent publication US7115622B2, “Amido ether substituted imidazoquinolines” (3M Innovative Properties Company, priority 2000, dated 2006).

For data set [1], the system named is interferon (α). The experiment in a line: Cytokine Induction in Human Cells: interferon induction in PBMC. The data set is classed as cell-based. Also noted: key to Lowest Effective Concentration (μM) Interferon: *: no induction was seen at any of the tested concentrations; generally the highest concentration tested was 10 or 30 μM. The settings on record: 18 to 24 hours incubation, tested 30–0.014 μM, ELISA; for minimal effective concentration: read-out: Lowest Effective Concentration (μM) Interferon. From the text:
(§1) An in vitro human blood cell system is used to assess cytokine induction. Activity is based on the measurement of interferon and tumor necrosis factor (α) (IFN and TNF, respectively) secreted into culture media as described by Testerman et. al. In “Cytokine Induction by the Immunomodulators Imiquimod and S-27609”, Journal of Leukocyte Biology, 58, 365–372 (September, 1995).
(§2) Whole blood from healthy human donors is collected by venipuncture into EDTA vacutainer tubes. Peripheral blood mononuclear cells (PBMC) are separated from whole blood by density gradient centrifugation using Histopaque®-1077. Blood is diluted 1:1 with Dulbecco's Phosphate Buffered Saline (DPBS) or Hank's Balanced Salts Solution (HBSS). The PBMC layer is collected and washed twice with DPBS or HBSS and resuspended at 4×10^6 cells/mL in RPMI complete. The PBMC suspension is added to 48 well flat bottom sterile tissue culture plates (Costar, Cambridge, Mass. or Becton Dickinson Labware, Lincoln Park, N.J.) containing an equal volume of RPMI complete media containing test compound.
(§3) The compounds are solubilized in dimethyl sulfoxide (DMSO). The DMSO concentration should not exceed a final concentration of 1% for addition to the culture wells. The compounds are generally tested at concentrations ranging from 30–0.014 μM.
(§4) The solution of test compound is added at 60 μM to the first well containing RPMI complete and serial 3 fold dilutions are made in the wells. The PBMC suspension is then added to the wells in an equal volume, bringing the test compound concentrations to the desired range (30–0.014 μM). The final concentration of PBMC suspension is 2×10^6 cells/mL. The plates are covered with sterile plastic lids, mixed gently and then incubated for 18 to 24 hours at 37° C. in a 5% carbon dioxide atmosphere.
(§5) Following incubation the plates are centrifuged for 10 minutes at 1000 rpm (˜200×g) at 4° C. The cell-free culture supernatant is removed with a sterile polypropylene pipet and transferred to sterile polypropylene tubes. Samples are maintained at −30 to −70° C. until analysis. The samples are analyzed for interferon (α) by ELISA and for tumor necrosis factor (α) by ELISA or IGEN Assay
Interferon (α) and Tumor Necrosis Factor (α) Analysis by ELISA Interferon (α) concentration is determined by ELISA using a Human Multi-Species kit from PBL Biomedical Laboratories, New Brunswick, N.J. Results are expressed in pg/mL.
(§6) The table below lists the lowest concentration found to induce interferon and the lowest concentration found to induce tumor necrosis factor for each compound.

Data set [2] deals with tumor necrosis factor (α). The experiment in a line: Cytokine Induction in Human Cells: tumor necrosis factor induction in PBMC. Format: cell-based. Set-up: key to Lowest Effective Concentration (μM) Tumor Necrosis Factor: *: no induction was seen at any of the tested concentrations; generally the highest concentration tested was 10 or 30 μM. The settings on record: 18 to 24 hours incubation, tested 30–0.014 μM, ELISA or IGEN assay; for minimal effective concentration: read-out: Lowest Effective Concentration (μM) Tumor Necrosis Factor.
Excerpt: as §1, §2, §3, §4, §5
Tumor necrosis factor (α) (TNF) concentration is determined using ELISA kits available from Biosource International, Camarillo, Calif. Alternately, the TNF concentration can be determined by Origen® M-Series Immunoassay and read on an IGEN M-8 analyzer from IGEN International, Gaithersburg, Md. The immunoassay uses a human TNF capture and detection antibody pair from Biosource International, Camarillo, Calif. Results are expressed in pg/mL.
as §6

Molecules are shown by their SMILES.

`CCOCc1nc2c(N)nc3ccccc3c2n1CCOCCNC(=O)c1ccccc1` [Example 72, N-(2-{2-[4-amino-2-(ethoxymethyl)-1H-imidazo[4,5-c]quinolin-1-yl]ethoxy}ethyl)benzamide] came in with a melting point of 154 to 156 °C. Molecule `COCCc1nc2c(N)nc3ccccc3c2n1CCOCCN(C)C(=O)c1ccccc1` [Example 8, N-(2-{2-[4-amino-2-(2-methoxyethyl)-1H-imidazo[4,5-c]quinolin-1-yl]ethoxy}ethyl)-N-methylbenzamide] registered a melting point of 93.5 to 97 °C.

Regarding `COCCc1nc2c(N)nc3c(c2n1CCOCCNC(=O)c1ccccc1)CCCC3` [Example 6, N-(2-{2-[4-amino-2-(2-methoxyethyl)-6,7,8,9-tetrahydro-1H-imidazo[4,5-c]quinolin-1-yl]ethoxy}ethyl)benzamide], the melting point lay in the range of 141 to 143 °C.

Molecule `CCc1nc2c(N)nc3ccccc3c2n1CCOCCNC(=O)c1ccccc1` [Example 71, N-{2-[2-(4-amino-2-ethyl-1H-imidazo[4,5-c]quinolin-1-yl)ethoxy]ethyl}benzamide] had a melting point of 188 to 191 °C. `CCCCc1nc2c(N)nc3ccccc3c2n1CCOCCNC(=O)c1ccc(F)cc1` [Example 21]: the minimal effective concentration in data set [1] amounted to 1 µM; in data set [2] it was 10 µM. In the case of `CN(C(=O)CCCCOCCn1cnc2c(N)nc3ccccc3c21)c1ccccc1` [Example 12, 5-[2-(4-amino-1H-imidazo[4,5-c]quinolin-1-yl)ethoxy]-N-methyl-N-phenylpentanamide], in data set [1], the minimal effective concentration is 3.33 µM. In addition, the “Lowest Effective Concentration (μM) Tumor Necrosis Factor” value in data set [2] is on record as “*”.

In the case of `CCCCc1nc2c(N)nc3ccccc3c2n1CCOCCNC(=O)C1CCCCC1` [Example 19], the minimal effective concentration in data set [1] came to 1 µM; in data set [2], 10 µM. With `Nc1nc2ccccc2c2c1ncn2CCOCCNC(=O)c1ccc(OC(F)(F)F)cc1` [Example 66], in data set [1], the “Lowest Effective Concentration (μM) Interferon” value was “*”. Besides, the “Lowest Effective Concentration (μM) Tumor Necrosis Factor” value in data set [2] is listed as “*”.

With `CCC(COCCC1CCN(C(=O)c2ccc(OC(F)(F)F)cc2)CC1)n1cnc2c(N)nc3ccccc3c21` (stereo not drawn) [Example 51], the minimal effective concentration in data set [1] and in data set [2] was 10 µM each time. Take `CCC(COCCC1CCN(C(=O)c2cccc(C(F)(F)F)c2)CC1)n1cnc2c(N)nc3ccccc3c21` (stereo not drawn) [Example 50]: the minimal effective concentration in data set [1] and in data set [2] was 1 µM each time. Regarding `COCCc1nc2c(N)nc3c(c2n1CCOCCN(C)C(=O)c1ccccc1)CCCC3` [Example 10, N-(2-{2-[4-amino-2-(2-methoxyethyl)-6,7,8,9-tetrahydro-1H-imidazo[4,5-c]quinolin-1-yl]ethoxy}ethyl)-N-methylbenzamide], the melting point was in the range of 83 to 87 °C. On to `Nc1nc2ccccc2c2c1ncn2CCOCCNC(=O)Cc1cccs1` [Example 56], for which the figures for the minimal effective concentration in data set [1] and in data set [2] were 1 µM and 10 µM, respectively. The corresponding values for `CCCCc1nc2c(N)nc3ccccc3c2n1CCOCCNC(=O)c1ccc(C#N)cc1` [Example 23] are 1 µM and 10 µM. As to `CCCCc1nc2c(N)nc3ccccc3c2n1CCOCCNC(=O)c1cccc(C(F)(F)F)c1` [Example 32], in data set [1], the “Lowest Effective Concentration (μM) Interferon” value is “*”. Further, in data set [2], the minimal effective concentration came to 10 µM.

As for `Nc1nc2ccccc2c2c1ncn2CCOCCNC(=O)c1ccc2ccccc2c1` [Example 63], the “Lowest Effective Concentration (μM) Interferon” value in data set [1] is reported as “*”. Further, the minimal effective concentration in data set [2] came out at 10 µM. Molecule `COCCc1nc2c(N)nc3ccccc3c2n1CCOCCNC(=O)c1ccccc1` [Example 4, N-(2-{2-[4-amino-2-(2-methoxyethyl)-1H-imidazo[4,5-c]quinolin-1-yl]ethoxy}ethyl)benzamide] had a melting point of 184 to 187 °C.

Regarding `Nc1nc2ccccc2c2c1ncn2CCOCCNC(=O)c1ccc(C(F)(F)F)cc1` [Example 65], the “Lowest Effective Concentration (μM) Interferon” value in data set [1] is listed as “*”. The “Lowest Effective Concentration (μM) Tumor Necrosis Factor” value in data set [2] is “*”. For `N#Cc1ccc(C(=O)NCCOCCn2cnc3c(N)nc4ccccc4c32)cc1` [Example 57], the minimal effective concentration in data set [1] turned out to be 10 µM. The “Lowest Effective Concentration (μM) Tumor Necrosis Factor” value in data set [2] is recorded as “*”.

`CCCCc1nc2c(N)nc3ccccc3c2n1CCOCCNC(=O)c1ccc(C(F)(F)F)cc1` [Example 33]: in data set [1], the “Lowest Effective Concentration (μM) Interferon” value was “*”. Besides, the minimal effective concentration in data set [2] was 10 µM. In the case of `CCC(COCCC1CCN(C(=O)C2CC2)CC1)n1cnc2c(N)nc3ccccc3c21` (stereo not drawn) [Example 35], the minimal effective concentration in data set [1] was 0.1 µM; in data set [2], 1 µM.

Turning to `CCCCc1nc2c(N)nc3ccccc3c2n1CCOCCNC(=O)c1ccc(OC(F)(F)F)cc1` [Example 34], the “Lowest Effective Concentration (μM) Interferon” value in data set [1] is listed as “*”. The minimal effective concentration in data set [2] amounted to 10 µM.
